These results are taken from PMC8880098, “Synthesis, Antibacterial Evaluation, and Computational Studies of a Diverse Set of Linezolid Conjugates” (Pharmaceuticals, 2022).

Molecules are shown by their SMILES. ≈ marks a conversion by molar mass, not a printed value. Read-outs that look alike come from different tables or passages of the source.

The subject of experiment [1] is Bacillus subtilis ATCC 6633. Put plainly: Antibacterial MIC, microdilution susceptibility test (CLSI). The experiment is classed as cell-based. The text has this: (§1) The synthesized linezolid conjugates (3a–k, 5a–f, 7a–c, 9a–c, 11a–f, 13, and 15) were subjected for antimicrobial properties determination against Gram-positive (Staphylococcus aureus ATCC 6538, Bacillus subtilis ATCC 6633) and Gram-negative (Pseudomonas aeruginosa ATCC 15692, Escherichia coli ATCC 47076) bacteria by the standard technique.
(§2) Antibacterial properties of the synthesized compounds (3a–k, 5a–f, 7a–c, 9a–c, 11a–f, 13 and 15) were screened against Gram-positive (Staphylococcus aureus ATCC 6538, Bacillus subtilis ATCC 6633) and Gram-negative (Pseudomonas aeruginosa ATCC 15,692 and Escherichia coli ATCC 47076) bacteria utilizing the standard technique. Linezolid was used as a standard reference/drug in the current study. The tested bacterial strains were obtained from MERCIN Center, Faculty of Agriculture, Ain Shams University, Cairo, Egypt.
(§3) To determine the antibacterial activity, stock solutions of the tested compounds and standard reference were prepared with up to 100% DMSO and stored at […]. If necessary, the solutions were heated to 40–60 °C before testing to facilitate complete dissolution. Double distilled water was used in all dilutions prepared. […] A microdilution susceptibility test was used for MIC determination (Mueller–Hinton broth in 96-well plates) according to the CLSI (the Clinical and Laboratory Standards Institute, Malvern, PA, USA). The bacterial inoculum was adjusted to approximately 2.5–3 × 10^4 cells/mL in Mueller–Hinton broth and incubated in a ratio of 1:1 with the test derivatives in polystyrene 96-well flat-bottom microplates. Positive growth control (without test derivatives) and negative control (without bacteria) were included. The microplates were placed in an incubator set to 37 °C for 24 h. Absorbance was measured at 620 nm at the end of the incubation period. The cut-off level for follow-up studies was defined as a minimum of 90% inhibition of growth compared to the untreated sample. Experiments were conducted once in triplicate. For selected compounds, minimum inhibitory concentration (MIC) values were determined by dose–response experiments. Experiments were performed at least twice, in triplicate per concentration tested.

In experiment [2] the test system is Staphylococcus aureus ATCC 6538. The description is as above. Type of experiment: cell-based.
Description: as §1, §2, §3

The subject of experiment [3] is Pseudomonas aeruginosa ATCC 15692. The experiment is described as above. Type of experiment: cell-based.
Description: as §1, §2, §3

For experiment [4], the system named is Escherichia coli ATCC 47076. The description is as above. The experiment is classed as cell-based.
Description: as §1, §2, §3

In experiment [5] the test system is Bacillus subtilis ATCC 6633. In words: microbe, parasite or virus in culture. On the set-up: species or system bacteria; Broth microdilution MIC in Mueller-Hinton broth, absorbance at 620 nm. As to conditions: ATCC6633, 24 h, read-out: Observed MIC, uM (B. subtilis).
Description: as §3, with “Antibacterial properties of the synthesized compounds (3a–k, 5a–f, 7a–c, 9a–c, 11a–f, 13 and 15) were screened against Gram-positive (Staphylococcus aureus ATCC 6538, Bacillus subtilis ATCC 6633) and Gram-negative (Pseudomonas aeruginosa ATCC 15,692 and Escherichia coli ATCC 47076) bacteria utilizing the standard technique. Linezolid was used as a standard reference/drug in the current study. The tested bacterial strains were obtained from MERCIN Center, Faculty of Agriculture, Ain Shams University, Cairo, Egypt. To” for “To”

The test system of experiment [6] is Staphylococcus aureus ATCC 6538. In words: microbe, parasite or virus in culture. On the set-up: species or system bacteria; Broth microdilution MIC in Mueller-Hinton broth, absorbance at 620 nm. Particulars: ATCC6538, 24 h, read-out: Observed MIC, uM (S. aureus).
Description: as §3, with “Antibacterial properties of the synthesized compounds (3a–k, 5a–f, 7a–c, 9a–c, 11a–f, 13 and 15) were screened against Gram-positive (Staphylococcus aureus ATCC 6538, Bacillus subtilis ATCC 6633) and Gram-negative (Pseudomonas aeruginosa ATCC 15,692 and Escherichia coli ATCC 47076) bacteria utilizing the standard technique. Linezolid was used as a standard reference/drug in the current study. The tested bacterial strains were obtained from MERCIN Center, Faculty of Agriculture, Ain Shams University, Cairo, Egypt. To” for “To”

Where [7] appears, read: Bacillus subtilis, ATCC6633, 24 h, Mueller–Hinton broth, 37 °C, 24 h, read-out: MIC, μg/mL ± SE, B. Subtilis (ATCC 6633).
[8] abbreviates: Staphylococcus aureus, ATCC6538, 24 h, Mueller–Hinton broth, 37 °C, 24 h, read-out: MIC, μg/mL ± SE, S. Aureus (ATCC 6538).
Where [9] appears, read: ATCC15692, Mueller–Hinton broth, 37 °C, 24 h, read-out: MIC, μg/mL ± SE, P. Aeruginosa (ATCC 15692).
Setting [10] is: ATCC15692, value in parentheses, read-out: MIC (μmol), P. Aeruginosa (ATCC 15692) (converted).
[11] abbreviates: ATCC47076, Mueller–Hinton broth, 37 °C, 24 h, read-out: MIC, μg/mL ± SE, E. Coli (ATCC 47076).
[12] abbreviates: ATCC47076, value in parentheses, read-out: MIC (μmol), E. Coli (ATCC 47076) (converted).
The mark [13] stands for this setting: Bacillus subtilis, ATCC6633, value in parentheses, read-out: MIC (μmol), B. Subtilis (ATCC 6633) (converted).
Setting [14] is: Staphylococcus aureus, ATCC6538, as quoted in running text, read-out: MIC against S. aureus.
Where [15] appears, read: Staphylococcus aureus, ATCC6538, value in parentheses, read-out: MIC (μmol), S. Aureus (ATCC 6538) (converted).
Where [16] appears, read: Bacillus subtilis, ATCC6633, as quoted in running text, read-out: MIC against B. subtilis.

As to `O=C1O[C@@H](CNCc2ccc(C(F)(F)F)cc2)CN1c1ccc(N2CCOCC2)c(F)c1` [Compound 11c, (S)-3-(3-Fluoro-4-morpholinophenyl)-5-[{(4-(trifluoromethyl)benzyl}amino]methyl) oxazolidin-2-one], the MIC in experiment [1] (setting [7]) was 16 ± 0.4 µg/mL; in experiment [2] (setting [8]) it was 32 ± 0.8 µg/mL; in experiment [3] (setting [9]), 64 ± 1.5 µg/mL; in experiment [3] (setting [10]) it was 141 µM; in experiment [4] (setting [11]), 32 ± 0.9 µg/mL; in experiment [4] (setting [12]) it was 70.6 µM. For the same molecule, the MIC was 35.3 µM (≈ 16 µg/mL) in experiment [5] and 70.6 µM (≈ 32 µg/mL) in experiment [6].
As for `CSCC[C@H](NC(=O)OCc1ccccc1)C(=O)NC[C@H]1CN(c2ccc(N3CCOCC3)c(F)c2)C(=O)O1` [Compound 3d, Benzyl ((S)-1-((((S)-3-(3-fluoro-4-morpholinophenyl)-2-oxooxazolidin-5-yl)methyl)amino)-4-(methylthio)-1-oxobutan-2-yl)carbamate], the MIC in experiment [2] (setting [8]) is 32 ± 1.6 µg/mL; in experiment [3] (setting [9]) it was 64 ± 3.1 µg/mL; in experiment [3] (setting [10]) it was 114 µM; in experiment [4] (setting [11]), 32 ± 2 µg/mL; in experiment [4] (setting [12]), 57.1 µM; in experiment [5] it was 57.1 µM (≈ 32 µg/mL). The MIC in experiment [6] was found to be 57.1 µM (≈ 32 µg/mL).
Take `CC(=O)NC[C@H]1CN(c2ccc(N3CCOCC3)c(F)c2)C(=O)O1` [Linezolid]: the MIC is 0.25 ± 0.01 µg/mL in experiment [1] (setting [7]); 0.741 µM in experiment [1] (setting [13]); 2 ± 0.1 µg/mL in experiment [2] (setting [8]); 5.93 µM in experiment [2] (setting [14]); 5.93 µM in experiment [2] (setting [15]); 32 ± 0.7 µg/mL in experiment [3] (setting [9]). In addition, the MIC is 94.9 µM in experiment [3] (ATCC15692, read-out: MIC against P. aeruginosa); 94.9 µM in experiment [3] (setting [10]); 8 ± 0.2 µg/mL in experiment [4] (setting [11]); 23.7 µM in experiment [4] (setting [12]).
`C[C@H](NC(=O)OCc1ccccc1)C(=O)NC[C@H]1CN(c2ccc(N3CCOCC3)c(F)c2)C(=O)O1` [Compound 3b, Benzyl ((S)-1-((((S)-3-(3-fluoro-4-morpholinophenyl)-2-oxooxazolidin-5-yl)methyl)amino)-1-oxopropan-2-yl)carbamate]: the MIC in experiment [1] (setting [7]) was 32 ± 2.1 µg/mL; in experiment [2] (setting [8]), 32 ± 1.5 µg/mL; in experiment [3] (setting [9]), 64 ± 1.9 µg/mL; in experiment [3] (setting [10]) it was 128 µM; in experiment [4] (setting [11]), 32 ± 2.5 µg/mL; in experiment [4] (setting [12]), 63.9 µM. Besides, the MIC in experiment [5] and in experiment [6] was 63.9 µM (≈ 32 µg/mL) in each case.
With `O=C(NC[C@H]1CN(c2ccc(N3CCOCC3)c(F)c2)C(=O)O1)c1ccc(F)cc1` [Compound 5b, (S)-4-Fluoro-N-((3-(3-fluoro-4-morpholinophenyl)-2-oxooxazolidin-5-yl)methyl) benzamide], the MIC in experiment [1] (setting [7]) was 1 ± 0.1 µg/mL; in experiment [1] (setting [16]), 2.33 to 2.5 µM; in experiment [1] (setting [13]), 2.4 µM; in experiment [1] (read-out: MIC against B. subtilis), 2.396 µM; in experiment [2] (setting [8]), 4 ± 0.1 µg/mL; in experiment [2] (setting [14]), 9.34 to 10 µM. Moreover, the MIC in experiment [2] (setting [15]) is 9.58 µM; in experiment [2] (read-out: MIC against S. aureus) it was 9.583 µM; in experiment [3] (setting [9]) it was 32 ± 1.2 µg/mL; in experiment [3] (setting [10]) it was 76.7 µM; in experiment [4] (setting [11]), 32 ± 2.4 µg/mL; in experiment [4] (setting [12]), 76.7 µM.
`CS(=O)(=O)c1ccc(CNC[C@H]2CN(c3ccc(N4CCOCC4)c(F)c3)C(=O)O2)cc1` [Compound 11b, (S)-3-(3-Fluoro-4-morpholinophenyl)-5-[{(4-(methylsulfonyl)benzyl}amino]methyl) oxazolidin-2-one]: the MIC in experiment [1] (setting [7]) was 32 ± 1.4 µg/mL; in experiment [2] (setting [8]), 32 ± 1.2 µg/mL; in experiment [3] (setting [9]), 64 ± 2.8 µg/mL; in experiment [3] (setting [10]) it was 138 µM; in experiment [4] (setting [11]), 32 ± 1.1 µg/mL; in experiment [4] (setting [12]), 69 µM. The MIC in experiment [5] and in experiment [6] was 69 µM (≈ 32 µg/mL) throughout.
Take `CC(C)[C@H](NC(=O)OCc1ccccc1)C(=O)NC[C@H]1CN(c2ccc(N3CCOCC3)c(F)c2)C(=O)O1` [Compound 3c, Benzyl ((S)-1-((((S)-3-(3-fluoro-4-morpholinophenyl)-2-oxooxazolidin-5-yl)methyl)amino)-3-methyl-1-oxobutan-2-yl)carbamate]: the MIC was 32 ± 2.7 µg/mL in experiment [1] (setting [7]); 32 ± 1.1 µg/mL in experiment [2] (setting [8]); 64 ± 2.9 µg/mL in experiment [3] (setting [9]); 121 µM in experiment [3] (setting [10]); 32 ± 1.6 µg/mL in experiment [4] (setting [11]); 60.5 µM in experiment [4] (setting [12]). Moreover, the MIC in experiment [5] and in experiment [6] was 60.5 µM (≈ 32 µg/mL) throughout.
Take `O=C(NC[C@H]1CN(c2ccc(N3CCOCC3)c(F)c2)C(=O)O1)c1ccc([N+](=O)[O-])cc1` [Compound 5d, (S)-N-((3-(3-Fluoro-4-morpholinophenyl)-2-oxooxazolidin-5-yl)methyl)-4-nitro benzamide]: the MIC is 1 ± 0.1 µg/mL in experiment [1] (setting [7]); 2.25 µM in experiment [1] (setting [16]); 2.25 µM in experiment [1] (setting [13]); 2 ± 0.1 µg/mL in experiment [2] (setting [8]); 4.5 µM in experiment [2] (setting [14]); 4.5 µM in experiment [2] (setting [15]). The MIC is 32 ± 1.6 µg/mL in experiment [3] (setting [9]), 72 µM in experiment [3] (setting [10]), 32 ± 2.2 µg/mL in experiment [4] (setting [11]) and 72 µM in experiment [4] (setting [12]).
With `O=C(NC[C@H]1CN(c2ccc(N3CCOCC3)c(F)c2)C(=O)O1)c1ccc(Cl)cc1` [Compound 5c, (S)-4-Chloro-N-((3-(3-fluoro-4-morpholinophenyl)-2-oxooxazolidin-5-yl)methyl) benzamide], the MIC in experiment [1] (setting [7]) was 2 ± 0.1 µg/mL; in experiment [1] (setting [16]) it was 4.61 to 5 µM; in experiment [1] (setting [13]), 4.61 µM; in experiment [2] (setting [8]) it was 8 ± 0.3 µg/mL; in experiment [3] (setting [9]), 32 ± 1.9 µg/mL; in experiment [3] (setting [10]), 73.8 µM. Further, the results for the MIC in experiment [4] (setting [11]), in experiment [4] (setting [12]) and in experiment [6] were 32 ± 0.7 µg/mL, 73.8 µM and 18.4 µM (≈ 8 µg/mL), respectively.
With `O=C1O[C@@H](CNCc2cccc(Cl)c2)CN1c1ccc(N2CCOCC2)c(F)c1` [Compound 11d, (S)-5-[{(3-Chlorobenzyl)amino}methyl]-3-(3-fluoro-4-morpholinophenyl) oxazolidin-2-one], the MIC in experiment [1] (setting [7]) was 32 ± 1.2 µg/mL; in experiment [2] (setting [8]), 32 ± 1 µg/mL; in experiment [3] (setting [9]) it was 32 ± 1.7 µg/mL; in experiment [3] (setting [10]), 76.2 µM; in experiment [4] (setting [11]), 32 ± 2.1 µg/mL; in experiment [4] (setting [12]), 76.2 µM. Besides, the MIC in experiment [5] and in experiment [6] was 76.2 µM (≈ 32 µg/mL) in each case.
